The target of this experiment is HIV-1 protease (Human immunodeficiency virus type 1 group M subtype B, UniProt P04585). As to the kind of experiment: biochemical. Conditions: for IC50: HIV-1 Protease IC50; for HIV-1 Protease % Inhib: dose 100.000 uM; for inhibition at 1 µM: read-out: HIV-1 Protease % Inhib, dose 1.000 uM; for inhibition at 10 µM: read-out: HIV-1 Protease % Inhib, dose 10.000 uM; for inhibition at 100 µM: read-out: HIV-1 Protease % Inhib, dose 100.000 uM. As for the experimental part:
The HIV protease screening assay is based on fluorescently labeled substrate which can be resolved from nonlabeled cleavage product using special beads coated with streptavidin. The substrate is biotinylated at the amino terminal arginine and fluorescently labeled with fluorescein isothiocynate (FITC) at the carboxyl terminal lysine. This assay has been employed to detect novel, nonpeptidic inhibitors of HIV-1 protease. Substrate (20 μl of 0.2 μM), sample (10 μl of desired concentration), and enzyme (10 μl of 0.1 μM) are added to a 96 well pandex plate. The assay is run in 0.1M sodium acetate buffer at pH 5.5 in the presence of 1.0M sodium chloride and 0.05% NP-40 with incubated in the dark for one hour at room temperature. Strepavidin coated polystyrene beads {40 μl of 0.1% (w/v)} are added and the plate is incubated in the dark for an additional half hour. The labeled cleavage product is separated from the unreacted substrate via filtration and is read on the Idexx screen machine. The data are analyzed by appropriate computer algorithms to ascertain percent inhibition values.

Structures can show the parent of a compound that is named as a salt.

A word on the IC50: it is the point on the concentration scale where inhibition reaches its midpoint.

In the case of `CC(c1cccc(C(=O)NCc2nc3ccccc3[nH]2)c1)c1c(O)c2ccccc2oc1=O` (stereo not shown) [Example 26, Coumarin, 3-[1-[3-[[[(2-benzimidazo131)methyl]amino]carbonyl]phenyl]ethyl]-4-hydroxy], the IC50 came out at 20.3 µM, the “HIV-1 Protease % Inhib” value was 80%, the inhibition at 1 µM was < 10% and the inhibition at 10 µM was determined as 53.6%. For the same compound, the inhibition at 100 µM stood at 95%.
For the compound `CC(c1cccc(C(=O)NCc2ccccn2)c1)c1c(O)c2ccccc2oc1=O` (stereo not shown) [Example 27, Coumarin, 4-hydroxy-3-[1-[3-[[[(2-pyridinyl)methyl]amino]carbonyl]phenyl]ethyl]-], the inhibition at 1 µM is < 10%, the inhibition at 10 µM is < 10% and the inhibition at 100 µM is 72%.
Consider `CC(c1cccc(C(=O)NCc2ccccc2)c1)c1c(O)c2ccccc2oc1=O` (stereo not shown) [Example 28, Coumarin, 4-hydroxy-3-[1-[3-[[(phenylmethyl)amino]carbonyl]phenyl]ethyl]-], for which the inhibition at 1 µM is < 10%, the inhibition at 10 µM came out at 17.9% and the inhibition at 100 µM is 81%.
In the same order, the values of `CC(c1cccc(C(=O)NC2c3ccccc3CC2O)c1)c1c(O)c2ccccc2oc1=O` (stereo not shown) [Example 29, Benzamide, N-(2,3-dihydro-2-hydroxy-1H-inden-1-yl)-3-[1-(4-hydroxy-2-oxo-2H-1-benzopyran-3-yl)ethyl]-] are < 10%, 54.2% and 98.4%.
In the same order, the values of `CCC(C)C(NC(=O)c1cccc(C(C)c2c(O)c3ccccc3oc2=O)c1)C(=O)NCc1ccccn1` (stereo not shown) [Example 30, Benzamide, 3-[1-(4-hydroxy-2-oxo-2H-1-benzopyran-3-yl)ethyl]-N-[2-methyl-1-[[(2-pyridinylmethyl)amino]carbonyl]butyl]-] are < 10%, 65.3% and 109%.
In the same order, the values of `CCCCNC(=O)c1cccc(C(C)c2c(O)c3ccccc3oc2=O)c1` (stereo not shown) [Example 31, Coumarin, 3-[1-[3-[(butylamino)carbonyl]phenyl]ethyl]-4-hydroxy-] are < 10%, < 10% and 53.7%.
For the compound `CC(c1cccc(C(=O)NCC(=O)N2CCOCC2)c1)c1c(O)c2ccccc2oc1=O` (stereo not shown) [Example 32, Coumarin, 4-hydroxy-3-[1-[3-[[[[(4-morpholino)carbonyl]methyl]amino]carbonyl]phenyl]ethyl]-], the inhibition at 1 µM was < 10%, the inhibition at 10 µM was < 10% and the inhibition at 100 µM was found to be 46.5%.
Take `CC(c1cccc(C(=O)NCC(=O)NCc2nc3ccccc3[nH]2)c1)c1c(O)c2ccccc2oc1=O` (stereo not shown) [Example 33, Coumarin, 3-[1-[3-[[[[[[(2-benzimidazolyl)methyl]amino]carbonyl]methyl]amino]carbonyl]phenyl]ethyl]4-hydroxy-]: the inhibition at 1 µM is < 10%, the inhibition at 10 µM is 11.2% and the inhibition at 100 µM came out at 77.4%.
Take `O=c1oc2ccccc2c(O)c1C1CCCc2ccccc21` (stereo not shown) [Example 34, 4-hydroxy-3-[1-(1,2,3,4-tetrahydro)naphthyl]-coumarin]: half-maximal inhibition (IC50) required 3.6 µM, the inhibition at 1 µM is < 10%, the inhibition at 10 µM was 50.3% and the inhibition at 100 µM was 91.1%.
Turning to `O=c1oc2ccccc2c(O)c1C1CCc2ccccc21` (stereo not shown) [Example 35, 4-hydroxy-3-[1-indanyl]-coumarin], the IC50 amounted to 6.8 µM, the inhibition at 1 µM was < 10%, the inhibition at 10 µM is 19.6% and the inhibition at 100 µM was found to be 92.6%.
As to `CCC(c1ccc(F)cc1)c1c(O)c2ccccc2oc1=O` (stereo not drawn) [Example 36, Coumarin, 3-(α-ethyl-p-fluorobenzyl)4-hydroxy-], the inhibition at 1 µM is < 10%, the inhibition at 10 µM was determined as 16.9% and the inhibition at 100 µM was 81.6%.
For `CCCC(c1ccccc1)c1c(O)c2ccc(OC)cc2oc1=O` (stereo not drawn) [Example 37, Coumarin, 7-methoxy-3-(α-propylbenzyl)4-hydroxy-], half-maximal inhibition (IC50) was put at 7 µM, the inhibition at 1 µM was < 10%, the inhibition at 10 µM amounted to 59.5% and the inhibition at 100 µM was 103%.
In the same order, the values of `COc1ccc2c(O)c(C(c3ccccc3)C3CC3)c(=O)oc2c1` (stereo not shown) [Example 38, 3-cyclopropylphenylmethyl-4-hydroxy-7-methoxy coumarin] are 2.8 µM, 18.6%, 83.2% and 93.4%.
In the same order, the values of `CC(C)(c1ccccc1)c1c(O)c2ccccc2oc1=O` [Example 39, 3-(α,α-dimethylbenzyl)4-hydroxy coumarin] are 5 µM, 13.8%, 69.6% and 82%.
`CCC(c1cccc(N)c1)c1c(O)c2ccccc2oc1=O` (stereo not shown) [Example 40, Coumarin, 3-[1-(3-aminophenyl)propyl]4-hydroxy-, monohydrochloride-]: the inhibition at 1 µM was < 10%, the inhibition at 10 µM is < 10% and the inhibition at 100 µM turned out to be 51.3%.
On to `CCC(c1cccc(NC(=O)COc2cccc3ccccc23)c1)c1c(O)c2ccccc2oc1=O` (stereo not shown) [Example 41, Coumarin, 4-hydroxy-3-[1-[3-[[(1-naphthoxymethyl)carbonyl]amino]phenyl]propyl]-], for which the inhibition at 1 µM is < 10%, the inhibition at 10 µM turned out to be 32.6% and the inhibition at 100 µM stood at 80.6%.
Regarding `CCC(c1cccc(NC(=O)C(NC(=O)OC(C)(C)C)C(C)C)c1)c1c(O)c2ccccc2oc1=O` (stereo not shown) [Example 42, Carbamic acid, [1-[[[3-[1-(4-hydroxy-2-oxo-2H-1-benzopyran-3-yl)propyl]phenyl]amino]carbonyl]-2-methylpropyl]-, 1,1-dimethylethyl ester], the IC50 was 9.9 µM, the “HIV-1 Protease % Inhib” value is 102.8%, the inhibition at 1 µM stood at 11.5% and the inhibition at 10 µM stood at 75.2%. Further, the inhibition at 100 µM was determined as 112%.
As for `CCC(c1cccc(NC(=O)CNC(=O)OC(C)(C)C)c1)c1c(O)c2ccccc2oc1=O` (stereo not shown) [Example 43, Coumarin, 4-hydroxy-3-[1-[3-[[[[(1,1-dimethylethoxycarbonyl)amino]methyl]carbonyl]amino]phenyl]propyl]-], it took 2.1 µM to reach half-maximal inhibition (IC50), the inhibition at 1 µM was 28.4%, the inhibition at 10 µM is 103% and the inhibition at 100 µM amounted to 122%.
With `CCCCC(=O)Nc1cccc(C(CC)c2c(O)c3ccccc3oc2=O)c1` (stereo not shown) [Example 44, Coumarin, 4-hydroxy-3-[1-[3-[(1-oxopentyl)amino]phenyl]propyl]-], the inhibition at 1 µM is < 10%, the inhibition at 10 µM was < 10% and the inhibition at 100 µM was found to be 55.6%.
Take `CCC(c1cccc(NC(=O)c2ccccn2)c1)c1c(O)c2ccccc2oc1=O` (stereo not shown) [Example 45, Coumarin, 4-hydroxy-3-[1-[3-[[(2-pyridinyl)carbonyl]amino]phenyl]propyl]-]: the inhibition at 1 µM is < 10%, the inhibition at 10 µM turned out to be 28.5% and the inhibition at 100 µM came to 90.9%.

Source of the values: patent US5686486A, “4-hydroxy-benzopyran-2-ones and 4-hydroxy-cycloalkyl[b]pyran-2-ones useful to treat retroviral infections” (priority 1995, dated 1997).
